Converted amounts (≈) assume the structure as drawn. Read-outs that look alike come from different tables or passages of the source.
Legend:
L1210 leukemia cells = experiment: Growth inhibitory effect on L1210 cells in culture (Table 4); type: cell-based; details: for inhibition at 0.1 µg/mL / inhibition at 0.5 µg/mL: Mus musculus, read-out: Inhibition Rate (growth); for inhibition at 0.1 µg/mL: L1210, 0.1 μg./ml.; for inhibition at 0.5 µg/mL: L1210, 0.5 μg./ml.
Experimental: For example, L1210 cells (5×10^4 cells/ml.) were inoculated in RPMI 1640 medium (Roswell Park Memorial Institute 1640) containing 20% calf serum and cultivated at 37° C. in the presence of 0.1 and 0.5 μg./ml. of the test compounds in a CO2 incubator.

L1210 cells = experiment: Inhibition of 14C-uridine and 14C-thymidine incorporation (nucleic acid synthesis) in L1210 cells in culture (Table 5); type: cell-based; details: 60 min. at 37° C.; for IC50: Mus musculus, L1210, 1 h
Experimental: The effect of the tetrahydropyranyl ether derivatives of formula I' on nucleic acid synthesis was examined as follows: […]
1×10^5 cells/ml. of L1210 cells were suspended in RPMI medium containing 10% calf serum, pre-cultivated at 37° C. for 1 to 2 hours in a CO2 incubator and then the test compounds were added to the medium at various concentrations. After 15 min. of incubation, ^14 C-uridine (0.05 μCi/ml.) or ^14 C-thymidine (0.05 μCi/ml.) was added and incubated at 37° C. for 60 min. Trichloroacetic acid (TCA) (10%) was added to the incubation medium to stop the reaction and precipitate the acid-insoluble materials, and then the precipitate was washed three times with 5 to 10% […]. The radioactivity was measured and expressed as 50% inhibition concentration of incorporation.

L1210 leukemia = experiment: Antitumor activity in BDF1 mice inoculated with L1210 leukemia cells (Table 6); type: in vivo; details: once daily for 10 days
Source text: As an example, BDF1 mice were inoculated intraperitoneally with 1×10^6 cells/mouse of L1210 leukemia cells.

[1] = tested on: NADPH-cytochrome P450 reductase; experiment: Stability on rat hepatic NADPH-cytochrome P450 reductase: 7-deoxyaglycone formed (Table 7); type: in vitro ADME; details: 25° C., 25 min., nitrogen; substrate 0.1 mM, NADPH 0.2 mM, enzyme 4.6 μg./ml, pH 8.0
Experimental: C. The marked antitumor effects seen from A and B above were confirmed by the stability of the test compounds on the inactivation by hepatic NADPH-cytochrome P450 reductase. Specifically, NADPH-cytochrome P450 reductase purified from rat liver homogenate was incubated with the tetrahydropyranyl ether derivatives of formula I' at 25° C. for 25 min. in nitrogen gas phase, and the incubation product formed, 7-deoxyaglycone, was determined as shown in Table 7.

[2] = thymidine, read-out: 50% Inhibition Concentration of 14C-Thymidine Incorporation
[3] = uridine, read-out: 50% Inhibition Concentration of 14C-Uridine Incorporation

SMILES: COc1cccc2c1C(=O)c1c(O)c3c(c(O)c1C2=O)C[C@@](O)(C(=O)COC1CCCCO1)C[C@@H]3O[C@H]1C[C@H](N)[C@H](O)[C@H](C)O1 (stereo partly drawn) [Example 14-O-PA, 14-O-tetrahydropyranyl adriamycin]
- inhibition at 0.1 µg/mL (L1210 leukemia cells): 7.6%
- inhibition at 0.5 µg/mL (L1210 leukemia cells): 58.3%
- IC50 (L1210 cells; [2]): 0.42 µg/mL (≈ 0.669 µM)
- IC50 (L1210 cells; [3]): 0.17 µg/mL (≈ 0.271 µM)
- Antitumor Activity (T/C, prolongation rate of survival day) (L1210 leukemia; 0.15 mg./kg./day i.p.): 103%
- Antitumor Activity (T/C, prolongation rate of survival day) (L1210 leukemia; 0.3 mg./kg./day i.p.): 110%
- Antitumor Activity (T/C, prolongation rate of survival day) (L1210 leukemia; 0.6 mg./kg./day i.p.): 113%
- Antitumor Activity (T/C, prolongation rate of survival day) (L1210 leukemia; 1.25 mg./kg./day i.p.): 126%
- Antitumor Activity (T/C, prolongation rate of survival day) (L1210 leukemia; 2.5 mg./kg./day i.p.): 130%
- Antitumor Activity (T/C, prolongation rate of survival day) (L1210 leukemia; 5 mg./kg./day i.p.): 142%
- Product (7-Deoxyaglycone) [1]: 18.4 nmoles/tube

SMILES: COc1cccc2c1C(=O)c1c(O)c3c(c(O)c1C2=O)C[C@@](O)(C(=O)COC1CCCCO1)C[C@@H]3O[C@H]1C[C@H](N)[C@H](OC2CCCCO2)[C@H](C)O1 (single isomer, unassigned; isomer a) [4',14-di-O-PAa, 4',14-bis(O-tetrahydropyranyl)adriamycin (isomer a)]
- inhibition at 0.1 µg/mL (L1210 leukemia cells): 37.5%
- inhibition at 0.5 µg/mL (L1210 leukemia cells): 80.8%
- IC50 (L1210 cells; [2]): 0.55 µg/mL (≈ 0.773 µM)
- IC50 (L1210 cells; [3]): 0.23 µg/mL (≈ 0.323 µM)
- Antitumor Activity (T/C, prolongation rate of survival day) (L1210 leukemia; 0.15 mg./kg./day i.p.): 96%
- Antitumor Activity (T/C, prolongation rate of survival day) (L1210 leukemia; 0.3 mg./kg./day i.p.): 103%
- Antitumor Activity (T/C, prolongation rate of survival day) (L1210 leukemia; 0.6 mg./kg./day i.p.): 96%
- Antitumor Activity (T/C, prolongation rate of survival day) (L1210 leukemia; 1.25 mg./kg./day i.p.): 109%
- Antitumor Activity (T/C, prolongation rate of survival day) (L1210 leukemia; 2.5 mg./kg./day i.p.): 115%
- Antitumor Activity (T/C, prolongation rate of survival day) (L1210 leukemia; 5 mg./kg./day i.p.): 154%
- Product (7-Deoxyaglycone) [1]: 13.1 nmoles/tube

SMILES: COc1cccc2c1C(=O)c1c(O)c3c(c(O)c1C2=O)C[C@@](O)(C(=O)COC1CCCCO1)C[C@@H]3O[C@H]1C[C@H](N)[C@H](OC2CCCCO2)[C@H](C)O1 (single isomer, unassigned; isomer b) [4',14-di-O-PAb, 4',14-bis(O-tetrahydropyranyl)adriamycin (isomer b)]
- Inhibition Rate (growth) (L1210 leukemia cells; 0.1 μg./ml.): 25.5%
- Inhibition Rate (growth) (L1210 leukemia cells; 0.5 μg./ml.): 72.1%
- 50% Inhibition Concentration of 14C-Thymidine Incorporation (L1210 cells; thymidine): 0.97 µg/mL
- 50% Inhibition Concentration of 14C-Uridine Incorporation (L1210 cells; uridine): 0.24 µg/mL
- Antitumor Activity (T/C, prolongation rate of survival day) (L1210 leukemia; 0.15 mg./kg./day i.p.): 115%
- Antitumor Activity (T/C, prolongation rate of survival day) (L1210 leukemia; 0.3 mg./kg./day i.p.): 96%
- Antitumor Activity (T/C, prolongation rate of survival day) (L1210 leukemia; 0.6 mg./kg./day i.p.): 103%
- Antitumor Activity (T/C, prolongation rate of survival day) (L1210 leukemia; 1.25 mg./kg./day i.p.): 103%
- Antitumor Activity (T/C, prolongation rate of survival day) (L1210 leukemia; 2.5 mg./kg./day i.p.): 109%
- Antitumor Activity (T/C, prolongation rate of survival day) (L1210 leukemia; 5 mg./kg./day i.p.): 161%
- Product (7-Deoxyaglycone) [1]: 15.8 nmoles/tube
